Measured values from paper PMC6693507 (Analytical chemistry, 2019).

Assays:
ACE = molecular target: T1, ACE (Mus musculus, UniProt P09470); assay: In vitro ACE cleavage of synthetic peptides, MALDI-TOF MS; format: biochemical; details: 2 pmol/μL peptide, WT ACE or NKO ACE, 30 min, 37 °C
T1 sequence (P09470 35-1312): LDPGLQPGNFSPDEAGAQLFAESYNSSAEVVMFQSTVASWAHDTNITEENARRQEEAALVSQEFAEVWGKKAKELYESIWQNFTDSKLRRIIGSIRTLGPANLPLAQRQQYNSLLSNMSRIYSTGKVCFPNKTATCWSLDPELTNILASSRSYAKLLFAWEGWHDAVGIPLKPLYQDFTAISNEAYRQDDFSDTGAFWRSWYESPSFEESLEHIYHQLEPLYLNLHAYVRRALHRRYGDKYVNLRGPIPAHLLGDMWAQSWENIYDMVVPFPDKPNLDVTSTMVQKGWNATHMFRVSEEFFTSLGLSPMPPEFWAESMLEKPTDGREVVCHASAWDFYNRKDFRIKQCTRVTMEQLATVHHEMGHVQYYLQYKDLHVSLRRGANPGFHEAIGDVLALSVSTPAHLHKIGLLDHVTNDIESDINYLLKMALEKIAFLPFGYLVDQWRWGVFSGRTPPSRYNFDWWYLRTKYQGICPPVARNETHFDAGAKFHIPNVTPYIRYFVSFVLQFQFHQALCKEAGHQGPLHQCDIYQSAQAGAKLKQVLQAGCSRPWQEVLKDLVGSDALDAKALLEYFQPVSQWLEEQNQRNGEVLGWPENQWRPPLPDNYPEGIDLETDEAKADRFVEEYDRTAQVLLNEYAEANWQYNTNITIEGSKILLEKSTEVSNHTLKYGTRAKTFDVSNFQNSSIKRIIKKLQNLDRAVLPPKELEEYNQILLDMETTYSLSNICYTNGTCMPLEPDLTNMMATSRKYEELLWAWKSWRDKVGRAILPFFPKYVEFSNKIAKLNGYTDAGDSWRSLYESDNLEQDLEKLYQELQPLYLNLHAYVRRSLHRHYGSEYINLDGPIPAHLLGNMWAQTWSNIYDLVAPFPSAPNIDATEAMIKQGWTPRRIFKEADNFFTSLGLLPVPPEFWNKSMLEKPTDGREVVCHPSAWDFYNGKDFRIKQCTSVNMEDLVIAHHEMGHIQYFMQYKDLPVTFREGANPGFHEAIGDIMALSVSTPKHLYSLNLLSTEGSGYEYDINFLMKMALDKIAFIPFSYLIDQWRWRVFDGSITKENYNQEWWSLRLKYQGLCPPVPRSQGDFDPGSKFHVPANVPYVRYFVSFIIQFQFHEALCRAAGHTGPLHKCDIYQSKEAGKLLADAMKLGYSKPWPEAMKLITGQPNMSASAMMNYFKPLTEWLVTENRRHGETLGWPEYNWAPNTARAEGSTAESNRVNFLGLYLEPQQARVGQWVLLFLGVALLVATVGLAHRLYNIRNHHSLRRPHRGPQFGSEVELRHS

WT ACE = assay: 100 μL of HEPES buffer; details: mouse (ACE purified from mouse lung and kidney), 37 °C, up to 30 min

Substance: FPDGTKEMD [serine-protease inhibitor A3K (22–30)]
- cleavage products detectable by MALDI-MS (ACE): not detectable

Substance: FPRSPL
- not cleaved (WT ACE): not further cleaved by ACE

Substance: FSSLMNLEEKPAPAA [apolipoprotein A-II (87–101)]
- cleavage products detectable by MALDI-MS (ACE): not detectable

Substance: WGTGSPRPG
- not cleaved (WT ACE): not further cleaved by ACE
